Experimental data reported in patent publication EP0183129A1, “Quinolonecarboxylic acid derivatives” (KYORIN PHARMACEUTICAL CO., LTD., priority 1984, dated 1986).
Converted amounts (≈) assume the structure as drawn. Where a name gives a salt, the structure may show the parent alone. Read-outs that look alike come from different tables or passages of the source.

Assays:
[1] = Urinary and bile excretion after oral administration, bioassay by cup method; type: in vivo; conditions: rat, fasted rats, 10 mg/kg oral, Mean ± S.D. (n=5)
[2] = test system: S. pneumoniae 24; assay: In vitro antibacterial activity, MIC (clinical isolates); type: cell-based; conditions: Streptococcus pneumoniae
[3] = test system: M. pneumoniae Mac.; assay: In vitro antibacterial activity against Mycoplasma, MIC; type: cell-based; conditions: Mycoplasmoides pneumoniae, 120 h; M. pneumoniae Mac.; no visible growth after incubation for 5 days; read-out: MIC
Excerpt: Experiment-3 In vitro antibacterial activity against Mycoplasma

[4] = Absorption and distribution: concentration in blood and organs after oral administration, bioassay by cup method; type: in vivo; conditions: rat, rats, fasted, 10 mg/kg oral, Mean ± S.D. (n=5); for concentration at 0.5 h: 1/2 hr after administration; for concentration at 1 h: 1 hr after administration; for concentration at 2 h: 2 hr after administration; for concentration at 4 h: 4 hr after administration; for concentration at 6 h: 6 hr after administration; for concentration at 8 h: 8 hr after administration
[5] = bile 0 ~ 3 hr, read-out: Concentration, bile
[6] = bile 0 ~ 3 hr, read-out: Recovery, bile
[7] = bile 0 ~ 6 hr, read-out: Recovery, bile
[8] = bile 0 ~ 24 hr, read-out: Recovery, bile
[9] = bile 3 ~ 6 hr, read-out: Concentration, bile
[10] = bile 6 ~ 24 hr, read-out: Concentration, bile
[11] = urine 0 ~ 3 hr, read-out: Concentration, urine
[12] = urine 0 ~ 3 hr, read-out: Recovery, urine
[13] = urine 0 ~ 6 hr, read-out: Recovery, urine
[14] = urine 0 ~ 24 hr, read-out: Recovery, urine
[15] = urine 3 ~ 6 hr, read-out: Concentration, urine
[16] = urine 6 ~ 24 hr, read-out: Concentration, urine
[17] = S. pneumoniae 24, 10^6 cells/ml, clinical isolate, read-out: MIC
[18] = kidney, read-out: Concentration in organs: Kidney
[19] = liver, read-out: Concentration in organs: Liver
[20] = lung, read-out: Concentration in organs: Lung
[21] = serum, read-out: Concentration in organs: Serum

For `CCNCC1CCN(c2c(F)cc3c(=O)c(C(=O)O)cn(C4CC4)c3c2Cl)C1` (stereo not drawn) [Example 13, 8-Chloro-l-cyclorpropyl-6-fluoro-1,4-dihydro-7-(3-ethylaminomethyl-l-pyrrolidinyl)-4-oxo-3-quinolinecarboxylic acid], the concentration at 3 h [1, 5] was 36400 ± 9900 ng/mL, the dose excreted at 3 h [1, 6] was 4.9 ± 1.5% and the dose excreted at 6 h [1, 7] was 6.9 ± 1.4%. For the same compound, the dose excreted at 24 h [1, 8] was 12.9 ± 4.9%, the concentration at 6 h [1, 9] was 19700 ± 8000 ng/mL and the concentration at 24 h [1, 10] was 11300 ± 8300 ng/mL. The concentration at 3 h [1, 11] was 36100 ± 9200 ng/mL, the dose excreted at 3 h [1, 12] was 2.7 ± 2.1% and the dose excreted at 6 h [1, 13] was 4.8 ± 1.8%. It also gave a dose excreted at 24 h [1, 14] of 7.4 ± 1.5%, a concentration at 6 h [1, 15] of 39400 ± 13300 ng/mL and a concentration at 24 h [1, 16] of 7600 ± 3600 ng/mL. The MIC [2, 17] was 0.05 µg/mL (≈ 0.123 µM), the MIC [3] was 0.05 µg/mL (≈ 0.123 µM) and the concentration at 0.5 h [4, 18] was 5630 ± 640 ng/g. It also gave a concentration at 1 h [4, 18] of 4700 ± 600 ng/g, a concentration at 2 h [4, 18] of 2810 ± 250 ng/g and a concentration at 4 h [4, 18] of 1470 ± 250 ng/g. It also gave a concentration at 6 h [4, 18] of 840 ± 90 ng/g, a concentration at 8 h [4, 18] of 890 ± 400 ng/g and a concentration at 0.5 h [4, 19] of 7780 ± 910 ng/g. For the same compound, the concentration at 1 h [4, 19] was 5710 ± 630 ng/g, the concentration at 2 h [4, 19] was 3140 ± 360 ng/g and the concentration at 4 h [4, 19] was 1340 ± 120 ng/g. For the same compound, the concentration at 6 h [4, 19] was 860 ± 150 ng/g, the concentration at 8 h [4, 19] was 1130 ± 520 ng/g and the concentration at 0.5 h [4, 20] was 3170 ± 710 ng/g. It also gave a concentration at 1 h [4, 20] of 2660 ± 420 ng/g, a concentration at 2 h [4, 20] of 1540 ± 210 ng/g and a concentration at 4 h [4, 20] of 700 ± 80 ng/g. It also gave a concentration at 6 h [4, 20] of 420 ± 50 ng/g, a concentration at 8 h [4, 20] of 450 ± 150 ng/g and a concentration at 0.5 h [4, 21] of 1720 ± 370 ng/mL. For the same compound, the concentration at 1 h [4, 21] was 1120 ± 300 ng/mL, the concentration at 2 h [4, 21] was 570 ± 80 ng/mL and the concentration at 4 h [4, 21] was 230 ± 40 ng/mL. It also gave a concentration at 6 h [4, 21] of 100 ± 10 ng/mL and a concentration at 8 h [4, 21] of 140 ± 80 ng/mL.

In the case of `CCn1cc(C(=O)O)c(=O)c2cc(F)c(N3CCNCC3)cc21` [NFLX, Norfloxacin, reference compound], the MIC [2]; 24 is reported as 12.5 µg/mL (≈ 39.1 µM) and the MIC [3] is reported as 3.13 µg/mL (≈ 9.8 µM).

In the case of `CCNCC1CCN(c2c(F)cc3c(=O)c(C(=O)O)cn(C4CC4)c3c2F)C1` (stereo not drawn) [Example 2, l-Cyclopropyl-7-(3-ethylaminomethyl-l-pyrrolidinyl)-6,8-difluoro-l,4-dihydro-4-oxo-3-quinolinecarboxylic acid hydrochloride], the concentration at 3 h [1, 5] is reported as 17100 ± 10000 ng/mL, the dose excreted at 3 h [1, 6] is reported as 2.4 ± 1.6% and the dose excreted at 6 h [1, 7] is reported as 4.3 ± 2.1%. It also gave a dose excreted at 24 h [1, 8] of 9.7 ± 3.1%, a concentration at 6 h [1, 9] of 16100 ± 6200 ng/mL and a concentration at 24 h [1, 10] of 10100 ± 2300 ng/mL. For the same compound, the concentration at 3 h [1, 11] was 44200 ± 27900 ng/mL, the dose excreted at 3 h [1, 12] was 3.5 ± 2% and the dose excreted at 6 h [1, 13] was 6.7 ± 4.3%. The dose excreted at 24 h [1, 14] was 13.5 ± 4.6%, the concentration at 6 h [1, 15] was 115000 ± 61000 ng/mL and the concentration at 24 h [1, 16] was 22100 ± 9800 ng/mL. It also gave an MIC [2, 17] of 0.05 µg/mL, an MIC [3] of 0.05 µg/mL and a concentration at 0.5 h [4, 18] of 8500 ± 310 ng/g. It also gave a concentration at 1 h [4, 18] of 6720 ± 540 ng/g, a concentration at 2 h [4, 18] of 4660 ± 300 ng/g and a concentration at 4 h [4, 18] of 2620 ± 590 ng/g. It also gave a concentration at 6 h [4, 18] of 1860 ± 110 ng/g, a concentration at 8 h [4, 18] of 980 ± 220 ng/g and a concentration at 0.5 h [4, 19] of 9480 ± 440 ng/g. The concentration at 1 h [4, 19] was 6240 ± 530 ng/g, the concentration at 2 h [4, 19] was 4320 ± 430 ng/g and the concentration at 4 h [4, 19] was 2360 ± 480 ng/g. For the same compound, the concentration at 6 h [4, 19] was 1620 ± 290 ng/g, the concentration at 8 h [4, 19] was 820 ± 190 ng/g and the concentration at 0.5 h [4, 20] was 3840 ± 420 ng/g. For the same compound, the concentration at 1 h [4, 20] was 2940 ± 220 ng/g, the concentration at 2 h [4, 20] was 1920 ± 330 ng/g and the concentration at 4 h [4, 20] was 1120 ± 310 ng/g. For the same compound, the concentration at 6 h [4, 20] was 780 ± 190 ng/g, the concentration at 8 h [4, 20] was 380 ± 80 ng/g and the concentration at 0.5 h [4, 21] was 1470 ± 190 ng/mL. It also gave a concentration at 1 h [4, 21] of 1300 ± 200 ng/mL, a concentration at 2 h [4, 21] of 900 ± 190 ng/mL and a concentration at 4 h [4, 21] of 420 ± 150 ng/mL. For the same compound, the concentration at 6 h [4, 21] was 260 ± 90 ng/mL and the concentration at 8 h [4, 21] was 120 ± 40 ng/mL.

`CCNCC1CCN(c2c(F)cc3c(=O)c(C(=O)O)cn(CC)c3c2F)C1` (stereo not shown) [Ref.1, 1-Ethyl-7-(3-ethylaminomethyl-1-pyrrolidinyl)-6,8-difluoro-1,4-dihydro-4-oxo-3-quinolinecarboxylic acid, reference compound] showed an MIC [3] of 0.39 µg/mL (≈ 1.03 µM).

Compound `NCC1CCN(c2c(F)cc3c(=O)c(C(=O)O)cn(C4CC4)c3c2F)C1` (stereo not drawn) [Example 1, 7-(3-Aminomethyl-l-pyrrolidinyl)-l-cyclopropyl-6,8-difluoro-1,4-dihydro-4-oxo-3-quinolinecarboxylic acid hydrochloride] has an MIC [2, 17] of 0.05 µg/mL.

Compound `CNCC1CCN(c2c(F)cc3c(=O)c(C(=O)O)cn(C4CC4)c3c2Cl)C1` (stereo not drawn) [Example 12, 8-Chloro-l-cyclopropyl-6-fluoro-1,4-dihydro-7-(3-methylaminomethyl-1-pyrrolidinyl)-4-oxo-3-quinolinecarboxylic acid hydrochloride] has an MIC [2, 17] of 0.05 µg/mL and an MIC [3] of 0.05 µg/mL.

`NCC1CCN(c2c(F)cc3c(=O)c(C(=O)O)cn(C4CC4)c3c2Cl)C1` (stereo not drawn) [Example 14, 8-Chloro-l-cyclopropyl-6-fluoro-l,4-dihydro-7-(3-aminomethyl-l-pyrrolidinyl)-4-oxo-3-quinolinecarboxylic acid hydrochloride] showed an MIC [2, 17] of 0.05 µg/mL.

With `CNCC1CCN(c2c(F)cc3c(=O)c(C(=O)O)cn(C4CC4)c3c2F)C1` (stereo not drawn) [Example 8, 1-Cyclopropyl-6,8-difluoro-1,4-dihydro-7-(3-methylaminomethyl-l-pyrrolidinyl)-4-oxo-3-quinolinecarboxylic acid hydrochloride] the MIC [2, 17] was 0.05 µg/mL and the MIC [3] was 0.05 µg/mL.
